In ChEMBL document CHEMBL5252544, “Synthesis and evaluation of biological activities of vibsanin A analogs” (Bioorg Med Chem Lett, 2017):
Active and inactive are the calls of the source. The rule behind the calls is not given here.

Experiments:
[1] = target: T1, Protein kinase C (PKC) (Homo sapiens) (UniProt O94806+P41743+P17252+P05129+Q05655+P05771+Q05513+Q02156+P24723+Q15139+Q04759); assay: Activation of PKC in human THP-1 cells assessed as increase in ERK phosphorylation incubated for 15 mins by immunoblotting analysis; assay type: cell-based; details: filed as activator, dose 0.1-10 µM
THP-1 [2] = assay: Induction of monocytic differentiation in human THP-1 cells assessed as increase in cell size at 10 uM measured after 72 hrs by giemsa staining based microscopic analysis; assay type: functional
THP-1 [3] = assay: Induction of monocytic differentiation in human THP-1 cells assessed as decrease in nuclear to cytoplasmic ratio at 10 uM measured after 72 hrs by giemsa staining based microscopic analysis; assay type: functional, cell-based
THP-1 [4] = assay: Induction of monocytic differentiation in human THP-1 cells assessed as high vacuolated cytoplasm at 10 uM measured after 72 hrs by giemsa staining based microscopic analysis; assay type: functional, cell-based
HL-60 = assay: Activation of ERK in human HL-60 cells assessed as increase in cell differentiation; assay type: cell-based; details: filed as activator
[5] = target: T1, Protein kinase C (PKC) (Homo sapiens); assay: Activation of PKC in human THP-1 cells assessed as increase in ERK phosphorylation at 100 nM incubated for 15 mins by immunoblotting analysis; assay type: cell-based; details: filed as activator
[6] = target: T1, Protein kinase C (PKC) (Homo sapiens); assay: Activation of PKC in human THP-1 cells assessed as increase in ERK phosphorylation at 0.1 to 10 uM incubated for 15 mins by immunoblotting analysis; assay type: cell-based; details: dose 0.1-10 µM
THP-1 [7] = assay: Cytotoxicity against human THP-1 cells by trypan blue staining based microscopic analysis; assay type: functional, cell-based
THP-1 [8] = assay: Induction of cell differentiation in human THP-1 cells; assay type: functional, cell-based
[9] = target: T1, Protein kinase C (PKC) (Homo sapiens); assay: Activation of PKC in human THP-1 cells assessed as increase in ERK phosphorylation at 10 uM pretreated with PMA for 24 hrs followed by compound addition and measured after 15 mins by immunoblotting analysis; assay type: cell-based
THP-1 [10] = assay: Induction of morphological changes in human THP-1 cells assessed as loss of cell circularity at 10 uM measured after 72 hrs by microscopic analysis; assay type: functional, cell-based

| SMILES | Activity [1] | Activity (THP-1 [2]) | Activity (THP-1 [3]) | Activity (THP-1 [4]) | Activity (HL-60) | Activity [6] | further results |
| --- | --- | --- | --- | --- | --- | --- | --- |
| CC(C)=CCC[C@]1(C)/C=C/[C@@H](OC(=O)C=C(C)C)[C@]2(C)O[C@@H]2CC/C(CO)=C\C1 | Dose-Dependent Effect | Active | Active | Active | Active |  |  |
| CCCCCCCCCCCCCC(=O)O[C@@H]1[C@@H](C)[C@@]2(O)[C@@H](C=C(CO)C[C@]3(O)C(=O)C(C)=C[C@@H]23)[C@@H]2C(C)(C)[C@]12OC(C)=O |  |  |  |  |  |  | Activity [5]: Active |
| C=C(I)CC[C@H]1O[C@@]1(C)[C@@H](/C=C/[C@](C)(CC=O)CCC=C(C)C)OC(=O)C=C(C)C |  |  |  |  |  | inactive |  |
| C=C1CC[C@H]2O[C@@]2(C)[C@H](OC(=O)C=C(C)C)/C=C/[C@@](C)(CCC=C(C)C)CC1=O |  |  |  |  |  | inactive | Activity (THP-1 [7]): Active; Activity (THP-1 [8]): inactive |
| CC(C)=CCC[C@]1(C)/C=C/[C@@H](OC(=O)C=C(C)C)[C@]2(C)O[C@@H]2CC/C(C=O)=C\C1 | Dose-Dependent Effect | Active | Active | Active | Active |  | Activity [9]: inactive; Activity (THP-1 [10]): Active |
| C=C1CC[C@H]2O[C@@]2(C)[C@H](OC(=O)C=C(C)C)/C=C/[C@@](C)(CCC=C(C)C)C[C@H]1O |  |  |  |  |  | inactive |  |
